# Experimental data as given in patent publication US20250186386A1, “METHODS OF REDUCING THE NEED FOR PERIPHERAL ARTERIAL REVASCULARIZATION IN A STATIN-TREATED SUBJECT” (AMARIN PHARMACEUTICALS IRELAND LIMITED, priority 2018, published 2025).
# Like-named read-outs stand apart in the source and are kept apart here.
# What was measured:
# [1] = REDUCE-IT: serious bleeding treatment-emergent adverse events (adverse events of special interest); assay type: in vivo, human; details: Safety population
# Description: Adverse Events of Special Interest: Bleeding-related adverse events, glucose control (fasting blood glucose and HbA1c), and indicators of hepatic disorders (e.g., ALT or AST increases >3×ULN, total bilirubin increases of ≥2×ULN) were summarized separately and compared between treatment groups.
# (§1) Analysis of Safety: All analyses of safety were conducted on the safety population, which was defined as all randomized patients. The safety assessment was based on the frequency of adverse events, physical exams, vital signs and safety laboratory tests. AEs with new onset during the study between the initiation of study drug and 30 days after the last dose of study drug for each patient was considered treatment-emergent (TEAEs). This included any AE with onset prior to initiation of study drug and increased severity after the treatment initiation.
# This included overall incidence rates (regardless of severity and relationship to study drug), and incidence rates for moderate or severe adverse events. A summary of SAEs and adverse events leading to early discontinuation (for 30 days) were presented through data listings. Patients who restarted study drug were included in the summary of AEs leading to discontinuation. Safety laboratory tests and vital signs were summarized by post-treatment change from baseline for each of the parameters using descriptive statistics by treatment group. […]
# [2] = REDUCE-IT: treatment-emergent adverse events of the safety population
# Description: Specification of Variables and Procedures: Safety assessments included adverse events, clinical laboratory measurements (chemistry, hematology), 12-lead ECGs, vital signs (systolic and diastolic blood pressure, heart rate, respiratory rate, and body temperature), weight, waist circumference, and physical examinations as per Study Procedures in Table 1. […] All laboratory test results were evaluated by the investigator as to their clinical significance. Any observations at physical examinations or laboratory values considered by the investigator to be clinically significant were considered an adverse event.
# An adverse event can therefore be any unfavorable and/or unintended sign (including an abnormal laboratory finding), symptom, or disease temporally associated with the use of an investigational medication product, whether or not related to the investigational medication product. All adverse events, including observed or volunteered problems, complaints, or symptoms, were recorded on the appropriate CRF. Each adverse event was evaluated for duration, intensity, and causal relationship with the study medication or other factors.
# Serious Adverse Events: A serious adverse event (SAE) is defined as an adverse event that meets any of the following criteria: • Results in death; • Is life-threatening—The term “life-threatening” in the definition of “serious” refers to an event in which the patient was at risk of death at the time of the event. […] Important medical events that may not result in death, be life threatening, or require hospitalization were considered an SAE when, based upon appropriate medical judgment, they may have jeopardized the patient and may have required medical or surgical intervention to prevent one of the outcomes listed above.
# as §1
# This included overall incidence rates (regardless of severity and relationship to study drug), and incidence rates for moderate or severe adverse events. A summary of SAEs and adverse events leading to early discontinuation (for 30 days) were presented through data listings. Patients who restarted study drug were included in the summary of AEs leading to discontinuation. Safety laboratory tests and vital signs were summarized by post-treatment change from baseline for each of the parameters using descriptive statistics by treatment group. Those patients with significant laboratory abnormalities were identified in data listings. Additional safety parameters were summarized in data listings.
# In addition to the treatment-emergent adverse events analyses, analyses on all AEs (serious and non-serious) and all serious AEs were performed.
# [3] = test system: hypertriglyceridemic patients with cardiovascular disease or at high risk for cardiovascular disease, on statin therapy; assay type: in vivo, human
# Description: The following study, also referred to as the REDUCE-IT clinical trial, was a large cardiovascular (CV) outcome trial designed to assess CV risk reduction benefit of AMR101 treatment (commercially known as VASCEPA®) versus placebo on the 5-point primary composite endpoint: CV death, non-fatal stroke, non-fatal myocardial infarction (MI), coronary revascularizations, or unstable angina requiring hospitalization.
# A multi-center, prospective, randomized, double-blind, placebo-controlled, parallel-group study was performed to evaluate the effect of AMR101 (4 g per day) on cardiovascular health and mortality in hypertriglyceridemic patients with cardiovascular disease or at high risk for cardiovascular disease. The intended expanded indication of the study was treatment with AMR101 as an add-on to statin therapy to reduce the risk of cardiovascular events in patients with clinical cardiovascular disease or with multiple risk factors for cardiovascular disease.
# The primary objective of this study was, in patients at LDL-C goal while on statin therapy, with established cardiovascular disease (CVD) or at high risk for CVD, and hypertriglyceridemia (e.g., fasting triglycerides (TG)≥200 mg/dL and <500 mg/dL), to evaluate the effect of AMR101 4 g daily on time from randomization to first occurrence of any component of the composite of the following major CV events: CV death; nonfatal MI; (including silent MI; electrocardiograms (ECGs) were performed annually for the detection of silent MIs); nonfatal stroke; coronary revascularization; and unstable angina determined to be caused by myocardial ischemia by invasive/non-invasive testing and requiring emergent hospitalization.
# The key secondary objective of this study was to evaluate the effect of AMR101 4 g daily on the time from randomization to the first occurrence of the composite of following major CV events: CV death, nonfatal MI (including silent MI), and nonfatal stroke.
# Other secondary objectives for this study were to evaluate the effect of therapy on time from randomization to the first occurrence of the following individual or composite endpoints: composite of CV death or nonfatal MI (including silent MI); fatal or nonfatal MI (including silent MI); non-elective coronary revascularization represented as the composite of emergent or urgent classifications; CV death; unstable angina determined to be caused by myocardial ischemia by invasive/non-invasive testing and requiring emergent hospitalization; fatal or nonfatal stroke; composite of total mortality, nonfatal MI (including silent MI), or nonfatal stroke; and total mortality.
# Primary Efficacy Endpoint: The primary efficacy endpoint was time from randomization to the first occurrence of the composite of the following clinical events: CV death; nonfatal MI (including silent MI; ECGs were performed annually for the detection of silent MIs); nonfatal stroke; coronary revascularization; and unstable angina determined to be caused by myocardial ischemia by invasive/non-invasive testing and requiring emergent hospitalization. The first occurrence of any of these major adverse vascular events during the follow-up period of the study were included in the incidence.
# Secondary Efficacy Endpoints: The key secondary efficacy endpoint was the time from randomization to the first occurrence of the composite of CV death, nonfatal MI (including silent MI), or nonfatal stroke. […]
# [4] = test system: Lipid, lipoprotein, and inflammatory markers (TG, non-HDL-C, LDL-C, HDL-C, Apo B, hsCRP); assay: REDUCE-IT: fasting lipid profile and biomarker assays (lipid, lipoprotein, and inflammatory markers) over time; assay type: in vivo, human
# Description: Fasting Lipid Profile: The fasting lipid panel included: TG, TC, LDL-C, HDL-C, non-HDL-C, and VLDL-C. At all visits, LDL-C was calculated using the Friedewald equation. At Visit 1 and Visit 1.1 direct LDL-C were used if at the same visit TG>400 mg/dL (4.52 mmol/L). These LDL-C values were used for the evaluation of the LDL-C inclusion criterion (LDL-C qualifying measurements for randomization) and for the assessment of changes in the statin therapy when LDL-C was not at goal. […] In addition, irrespective of the TG levels, at Visit 2 (0 Months of Follow-up, baseline) and at Visit 4 (12 Months of Follow-up), LDL-C were measured by preparative ultracentrifugation. These preparative ultracentrifugation LDL-C measurements were used in the statistical analysis including the calculation of the percent change from baseline (1 year versus baseline). Hopkins LDL-C was calculated for each visit.
# Biomarkers Assays: The biomarker assays included: hsCRP, Apo B and hsTnT.
# The fasting lipid panel was tested at Screening (Visit 1 or Visit 1.1), Randomization visit (Visit 2; Day 0), Visit 3 (Day 120; ˜4 Months) and all other follow-up visits including the last visit. For change from baseline to 1 year preparative ultracentrifugation measurements for LDL-C were analyzed, unless this value was missing. If the LDL-C preparative ultracentrifugation values were missing, then another LDL-C value was used, with prioritization of values obtained from LDL-C Direct measurements, followed by LDL-C derived by the Friedewald calculation (only for subjects with TG<400 mg/dL), and finally LDL-C derived using the calculation published by Hopkins University investigators (Martin S S, Blaha M J, Elshazly M B, et al. Comparison of a novel method vs the Friedewald equation for estimating low-density lipoprotein cholesterol levels from the standard lipid profile. JAMA. 2013; 310:2061-8). In addition, change from baseline to day 120 in LDL-C utilizing Friedewald's and Hopkins methods was analyzed, using the arithmetic mean of LDL-C obtained at Visit 2 (Day 0) and the preceding Visit 1 (or Visit 1.1). If one of these values was missing, the single available LDL-C value was used. LDL-C according to Hopkins was calculated at each visit.
# The randomization visit was considered Baseline. If a baseline value was not available from the randomization visit, then the latest screening value was used. For measurements of lipids, lipoproteins and inflammatory markers, the change and the percent change were summarized at each visit. Since these biomarkers are typically not normally distributed, the Wilcoxon rank-sum test was used for treatment comparisons of the percent change from baseline, and medians and quartiles were provided for each treatment group. The medians of the differences between the treatment groups and 95% CIs were estimated with the Hodges-Lehmann method. In addition, shift-tables were generated as appropriate.
smiles,measurement,setting,value
"CC/C=C\C/C=C\C/C=C\C/C=C\C/C=C\CCCC(=O)OCC [AMR101, icosapent ethyl]","Serious gastrointestinal bleeding, rate",[1],1.5%
same,"Pneumonia (serious adverse event), rate",[2]; Safety population,2.6%
same,Rate of anemia (adverse event),[2]; Safety population,4.7%
same,Rate of atrial fibrillation (adverse event),[2]; Safety population,5.3%
same,Rate of diarrhea (adverse event),[2]; Safety population,9%
same,Rate of gastrointestinal adverse events,[2]; Safety population,33.0%
same,Rate of peripheral edema (adverse event),[2]; Safety population,6.5%
same,"Serious TEAE Leading to Death, %",[2]; […],(2.3%)
same,"Serious TEAE, %",[2]; […],(30.6%)
same,"Subjects with at Least One TEAE, %",[2]; […],(81.8%)
same,Key secondary composite endpoint absolute between-group difference in the rate of the endpoint,[3]; 2 g twice daily vs placebo,3.6 percentage points
same,Primary composite endpoint absolute between-group difference in the rate of the endpoint,[3]; 2 g twice daily vs placebo,4.8 percentage points
same,"Cardiovascular death, % of patients","[3]; 4 g daily, ITT",4.3%
same,"Total mortality, % of patients","[3]; 4 g daily, ITT",6.7%
same,Amputation for PVD (%),[3]; ITT,(0.5%)
same,Cardiac Arrest (%),[3]; ITT,(0.5%)
same,Cardiac Arrhythmias Requiring Hospitalization of ≥24 Hours (%),[3]; ITT,(4.6%)
same,Carotid Revascularization (%),[3]; ITT,(0.8%)
same,Coronary Revascularization (%),[3]; ITT,(9.2%)
same,Elective Revascularization (%),[3]; ITT,(4.7%)
same,Emergent Revascularization (%),[3]; ITT,(1.0%)
same,Hemorrhagic Stroke (%),[3]; ITT,0.3%
same,Ischemic Stroke (%),[3]; ITT,(2.0%)
same,New Heart Failure (%),[3]; ITT,4.1%
same,New Heart Failure Requiring Hospitalization (%),[3]; ITT,(3.4%)
same,Salvage Revascularization (%),[3]; ITT,(0.0%)
same,Sudden Cardiac Death (%),[3]; ITT,(1.5%)
same,Transient Ischemic Attack (%),[3]; ITT,(1.6%)
same,Urgent Revascularization (%),[3]; ITT,(4.4%)
same,Hemorrhagic Stroke (%),"[3]; ITT, listed as Icosapent Ethyl",(0.3%)
same,New Heart Failure (%),"[3]; ITT, listed as Icosapent Ethyl",(4.1%)
same,"Atrial fibrillation or flutter requiring hospitalization (adjudicated tertiary endpoint), % of patients","[3]; human, in vivo",3.1%
same,New Onset of Diabetes (%),[3]; patients with diabetes at baseline excluded,(3.8%)
same,Composite of cardiovascular death or nonfatal myocardial infarction RRR,"[3]; vs placebo, 4 g per day",25%
same,"Composite of total mortality, nonfatal myocardial infarction, or nonfatal stroke reduction (RRR)","[3]; vs placebo, 4 g per day",23%
same,Key secondary composite endpoint relative risk reduction (RRR),"[3]; vs placebo, 4 g per day",26%
same,Primary composite endpoint relative risk reduction (RRR),"[3]; vs placebo, 4 g per day",25%
same,Reduction in heart attack,"[3]; vs placebo, 4 g per day",31%
same,Total mortality reduction (RRR),"[3]; vs placebo, 4 g per day",13%
same,Total mortality HR,"[3]; vs placebo, ITT",0.87
same,Primary composite endpoint number needed to treat (NNT),"[3]; vs placebo, median follow up 4.9 years",21
same,HDL-C Median Year 1,"[4]; Year 1, Table 18",39.0 mg/dL
same,LDL-C Median Year 1,"[4]; Year 1, Table 18",77.0 mg/dL
same,Non-HDL-C Median Year 1,"[4]; Year 1, Table 18",113.0 mg/dL
same,Triglycerides Median Year 1,"[4]; Year 1, Table 18",175.0 mg/dL
same,Triglycerides: median reduction from baseline greater than in the placebo group (Hodges-Lehmann),"[4]; baseline to one year, vs placebo",19.7%
same,"HDL-C Median Between Group Difference at Year 1, % Change from Baseline","[4]; vs placebo, Table 18",−6.3%
same,"HDL-C Median Between Group Difference at Year 1, Absolute Change from Baseline","[4]; vs placebo, Table 18",-2.5 mg/dL
same,"LDL-C Median Between Group Difference at Year 1, % Change from Baseline","[4]; vs placebo, Table 18",−6.6%
same,"LDL-C Median Between Group Difference at Year 1, Absolute Change from Baseline","[4]; vs placebo, Table 18",-5.0 mg/dL
same,"Non-HDL-C Median Between Group Difference at Year 1, Absolute Change from Baseline","[4]; vs placebo, Table 18",-15.5 mg/dL
same,"Triglycerides Median Between Group Difference at Year 1, % Change from Baseline","[4]; vs placebo, Table 18",−19.7%
same,"Triglycerides Median Between Group Difference at Year 1, Absolute Change from Baseline","[4]; vs placebo, Table 18",-44.5 mg/dL
